Patent US20260234147A1 (priority 2023, published 2026)
Read-outs that look alike come from different tables or passages of the source.

Columns and labels:
[1] = target: hMOR (Homo sapiens, UniProt P35372); test: Radioligand binding assay (Eurofins Cerep), [3H]DAMGO displacement; details: for Ki: 3 independent experiments
[2] = target: T1, α2C adrenergic receptor (Homo sapiens, UniProt P18825); test: Radioligand binding assay (Eurofins Cerep), [3H]RX 821002 displacement
T1 construct: Eurofins Cerep (contract screening)
T1 sequence (P18825 1-462): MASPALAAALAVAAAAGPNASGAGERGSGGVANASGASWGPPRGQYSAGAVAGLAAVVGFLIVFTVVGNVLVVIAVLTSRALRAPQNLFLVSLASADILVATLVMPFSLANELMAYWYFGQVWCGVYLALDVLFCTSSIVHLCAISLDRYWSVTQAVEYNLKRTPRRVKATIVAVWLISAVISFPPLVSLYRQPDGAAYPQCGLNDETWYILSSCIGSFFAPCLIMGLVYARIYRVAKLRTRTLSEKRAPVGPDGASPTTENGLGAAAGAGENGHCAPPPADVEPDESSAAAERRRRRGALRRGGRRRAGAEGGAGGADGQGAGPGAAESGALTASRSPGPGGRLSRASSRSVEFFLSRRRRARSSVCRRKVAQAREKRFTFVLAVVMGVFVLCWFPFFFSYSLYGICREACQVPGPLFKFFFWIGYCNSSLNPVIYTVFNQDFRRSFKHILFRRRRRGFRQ

[3] = target: T2, α2A adrenergic receptor (Homo sapiens, UniProt P08913); test: as above
T2 construct: Eurofins Cerep (contract screening)
T2 sequence (P08913 1-465): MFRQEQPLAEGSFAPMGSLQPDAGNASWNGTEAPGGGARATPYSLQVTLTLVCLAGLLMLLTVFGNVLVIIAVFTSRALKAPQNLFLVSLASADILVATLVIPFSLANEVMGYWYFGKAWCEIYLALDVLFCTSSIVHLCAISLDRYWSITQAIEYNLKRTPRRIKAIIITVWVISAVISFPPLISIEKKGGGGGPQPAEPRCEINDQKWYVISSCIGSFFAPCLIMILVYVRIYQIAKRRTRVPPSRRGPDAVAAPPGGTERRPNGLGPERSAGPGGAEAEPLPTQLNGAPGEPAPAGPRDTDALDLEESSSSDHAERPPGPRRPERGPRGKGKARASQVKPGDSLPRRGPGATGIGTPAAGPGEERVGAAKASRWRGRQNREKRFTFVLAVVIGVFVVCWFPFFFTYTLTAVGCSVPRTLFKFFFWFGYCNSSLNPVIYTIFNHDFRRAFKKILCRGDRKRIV

[4] = target: hDOR (Homo sapiens, UniProt P41143); test: Radioligand binding assay (Eurofins Cerep), [3H]DADLE displacement
[5] = target: hKOR (Homo sapiens, UniProt P41145); test: Radioligand binding assay (Eurofins Cerep), [3H]U69,593 displacement
[6] = Table B1, mean ± SEM, read-out: MOR Ki ± SEM
[7] = Table B1, mean ± SEM, 3 independent experiments, read-out: Alpha2C Ki ± SEM
[8] = Alpha2A Ki ± SEM (nM), Table B1, mean ± SEM, 3 independent experiments
[9] = Table 3-1, read-out: Ki (nM ± SEM) MOR
[10] = Table 3-2, read-out: Ki (nM ± SEM) MOR
[11] = Table 3-3, read-out: Ki (nM ± SEM) MOR
[12] = Table 3-5, read-out: Ki (nM ± SEM) MOR
[13] = Table 3-6, read-out: Ki (nM ± SEM) MOR
[14] = Table 3-1, 3 independent experiments, read-out: Ki (nM ± SEM) DOR
[15] = Table 3-2, 3 independent experiments, read-out: Ki (nM ± SEM) DOR
[16] = Table 3-3, 3 independent experiments, read-out: Ki (nM ± SEM) DOR
[17] = Table 3-5, 3 independent experiments, read-out: Ki (nM ± SEM) DOR
[18] = Table 3-6, 3 independent experiments, read-out: Ki (nM ± SEM) DOR
[19] = Ki (nM ± SEM) a2C-AR, Table 3-1, 3 independent experiments
[20] = Ki (nM ± SEM) a2C-AR, Table 3-2, 3 independent experiments
[21] = Ki (nM ± SEM) a2C-AR, Table 3-5, 3 independent experiments
[22] = Ki (nM ± SEM) a2C-AR, Table 3-6, 3 independent experiments
[23] = Ki (nM ± SEM) a2A-AR, Table 3-1, 3 independent experiments
[24] = Ki (nM ± SEM) a2A-AR, Table 3-2, 3 independent experiments
[25] = Ki (nM ± SEM) a2A-AR, Table 3-3, 3 independent experiments
[26] = Ki (nM ± SEM) a2A-AR, Table 3-6, 3 independent experiments
[27] = Ki (nM ± SEM) a2A-ar, Table 3-5, 3 independent experiments
[28] = Table 3-1, 3 independent experiments, read-out: Ki (nM ± SEM) KOR
[29] = Table 3-2, 3 independent experiments, read-out: Ki (nM ± SEM) KOR
[30] = Table 3-3, 3 independent experiments, read-out: Ki (nM ± SEM) KOR
[31] = Table 3-5, 3 independent experiments, read-out: Ki (nM ± SEM) KOR
[32] = Table 3-6, 3 independent experiments, read-out: Ki (nM ± SEM) KOR

hMOR, sequence (P35372 whole entry): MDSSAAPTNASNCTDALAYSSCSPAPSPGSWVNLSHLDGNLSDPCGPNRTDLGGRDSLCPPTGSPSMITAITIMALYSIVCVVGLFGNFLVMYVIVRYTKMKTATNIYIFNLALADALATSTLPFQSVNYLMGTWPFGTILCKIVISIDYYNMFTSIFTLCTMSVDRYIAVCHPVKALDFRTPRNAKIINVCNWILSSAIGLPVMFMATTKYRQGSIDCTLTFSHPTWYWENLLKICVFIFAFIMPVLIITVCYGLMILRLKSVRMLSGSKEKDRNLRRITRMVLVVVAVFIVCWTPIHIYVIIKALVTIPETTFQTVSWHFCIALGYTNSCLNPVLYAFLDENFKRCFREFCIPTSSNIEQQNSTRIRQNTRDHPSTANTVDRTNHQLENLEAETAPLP
hDOR, sequence (P41143 whole entry): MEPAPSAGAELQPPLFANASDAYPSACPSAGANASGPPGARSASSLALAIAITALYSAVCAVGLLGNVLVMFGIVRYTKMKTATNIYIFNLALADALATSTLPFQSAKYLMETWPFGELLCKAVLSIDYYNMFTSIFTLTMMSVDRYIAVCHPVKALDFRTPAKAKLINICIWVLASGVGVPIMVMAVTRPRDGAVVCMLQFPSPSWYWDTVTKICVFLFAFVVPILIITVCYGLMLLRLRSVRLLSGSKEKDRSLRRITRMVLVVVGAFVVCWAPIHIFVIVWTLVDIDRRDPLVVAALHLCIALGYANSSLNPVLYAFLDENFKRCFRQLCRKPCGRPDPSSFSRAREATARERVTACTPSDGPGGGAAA
hKOR, sequence (P41145 whole entry): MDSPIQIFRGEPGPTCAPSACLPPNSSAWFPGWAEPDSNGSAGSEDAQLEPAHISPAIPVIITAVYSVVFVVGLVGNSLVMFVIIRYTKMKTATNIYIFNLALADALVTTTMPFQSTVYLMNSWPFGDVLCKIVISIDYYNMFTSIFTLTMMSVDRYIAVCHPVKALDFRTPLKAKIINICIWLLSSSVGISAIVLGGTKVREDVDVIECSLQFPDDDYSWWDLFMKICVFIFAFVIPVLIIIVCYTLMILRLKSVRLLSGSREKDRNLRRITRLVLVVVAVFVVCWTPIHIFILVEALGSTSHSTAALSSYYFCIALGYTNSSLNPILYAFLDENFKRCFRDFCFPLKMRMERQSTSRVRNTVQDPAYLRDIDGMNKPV

With COC(=O)C=C1CCN2CCC(O)(c3ccccc3OC)CC2C1 (single isomer, unassigned) [SG-01-005A] the Ki [1, 6] was > 10000 nM, the Ki [2, 7] was 489 ± 83.4 nM and the Ki [3, 8] was 1000 ± 254 nM.

COC(=O)C=C1CCN2CCC(O)(c3ccccc3OC)CC2C1 (single isomer, unassigned) [SG-01-005B] was tested, and the Ki [1, 6] was > 10000 nM, the Ki ([2]; Alpha2C Ki ± SEM (nM), Table B1, mean ± SEM, 3 independent experiments) was 46.7 ± 4.04 nM and the Ki [3, 8] was 110 ± 8 nM.

For CC[C@@H]1CN2CC[C@@]3(O)C(=Nc4cccc(OC)c43)[C@@H]2C[C@@H]1/C(=C\OC)C(=O)OC [7-Hydroxy Mitragynine, reference compound], the Ki ([4]; Table A1, data summary #1, read-out: DOR Ki ± SEM) was 243 nM, the Ki ([4]; Table A4, data summary #2, read-out: DOR Ki ± SEM) was 243 nM and the Ki ([2]; Table A1, data summary #1, read-out: Alpha2C Ki ± SEM) was > 10000 nM. For the same compound, the Ki ([3]; Table A1, data summary #1, read-out: Alpha2A Ki ± SEM) was > 10000 nM, the Ki ([3]; Table A4, data summary #2, read-out: Alpha2A Ki ± SEM) was > 10000 nM and the Ki ([5]; Table A1, data summary #1, read-out: KOR Ki ± SEM) was 450 nM. The Ki ([5]; Table A4, data summary #2, read-out: KOR Ki ± SEM) was 450 nM.

With COC(=O)CC1CCN(CCc2c[nH]c3cccc(OC)c23)CC1 [Compound 3-22] the Ki [1, 9] was > 10000 nM, the Ki [1, 10] was > 10000 nM and the Ki [1, 11] was > 10000 nM. For the same compound, the Ki [1, 12] was > 10000 nM, the Ki [1, 13] was > 10000 nM and the Ki [4, 14] was > 10000 nM. For the same compound, the Ki [4, 15] was > 10000 nM, the Ki [4, 16] was > 10000 nM and the Ki [4, 17] was > 10000 nM. The Ki [4, 18] was > 10000 nM, the Ki [2, 19] was 69.3 ± 4.2 nM and the Ki [2, 20] was 69.3 ± 4.16 nM. The Ki ([2]; Ki (nM ± SEM) a2C-AR, Table 3-3, 3 independent experiments) was 69.3 ± 4.16 nM, the Ki [2, 21] was 69.3 ± 4.16 nM and the Ki [2, 22] was 69.3 ± 4.16 nM. The Ki [3, 23] was 229 ± 24.9 nM, the Ki [3, 24] was 229 ± 24.9 nM and the Ki [3, 25] was 229 ± 24.9 nM. For the same compound, the Ki [3, 26] was 229 ± 24.9 nM, the Ki [3, 27] was 229 ± 24.9 nM and the Ki [5, 28] was > 10000 nM. For the same compound, the Ki [5, 29] was > 10000 nM, the Ki [5, 30] was > 10000 nM and the Ki [5, 31] was > 10000 nM. For the same compound, the Ki [5, 32] was > 10000 nM.

CO/C=C(/C(=O)OC)C1CCN(CCc2c[nH]c3ccccc23)CC1 [Compound 3-23] was tested, and the “SR: Selectivity Ratio (KiMOR/Kiα2A)” value ([1]; Table 3-1) was 0.61, the Ki [1, 9] was 451 ± 108 nM and the “SR: Selectivity Ratio (KiMOR/Kiα2A)” value ([1]; Table 3-2) was 0.61. The Ki [1, 10] was 451 ± 108 nM, the “SR: Selectivity Ratio (KiMOR/Kiα2A)” value ([1]; Table 3-4) was 0.61 and the Ki ([1]; Table 3-4, read-out: Ki (nM ± SEM) MOR) was 451 ± 108 nM. The “SR: Selectivity Ratio (KiMOR/Kiα2A)” value ([1]; Table 3-5) was 0.61, the Ki [1, 12] was 451 ± 108 nM and the “SR: Selectivity Ratio (KiMOR/Kiα2A)” value ([1]; Table 3-6) was 0.61. For the same compound, the Ki [1, 13] was 451 ± 108 nM, the Ki [4, 14] was > 10000 nM and the Ki [4, 15] was > 10000 nM. For the same compound, the Ki ([4]; Table 3-4, 3 independent experiments, read-out: Ki (nM ± SEM) DOR) was > 10000 nM, the Ki [4, 17] was > 10000 nM and the Ki [4, 18] was > 10000 nM. The Ki [2, 19] was 830 ± 268 nM, the Ki [2, 20] was 830 ± 268 nM and the Ki ([2]; Ki (nM ± SEM) a2C-AR, Table 3-4, 3 independent experiments) was 830 ± 268 nM. It also gave a Ki [2, 21] of 830 ± 268 nM, a Ki [2, 22] of 135 ± 12.5 nM and a Ki [3, 23] of 741 ± 19.3 nM. The Ki [3, 24] was 741 ± 19.3 nM, the Ki ([3]; Ki (nM ± SEM) a2A-AR, Table 3-4, 3 independent experiments) was 741 ± 19.3 nM and the Ki [3, 26] was 741 ± 19.3 nM. The Ki [3, 27] was 741 ± 19.3 nM, the Ki [5, 28] was 3670 ± 1260 nM and the Ki [5, 29] was 3670 ± 1260 nM. The Ki ([5]; Table 3-4, 3 independent experiments, read-out: Ki (nM ± SEM) KOR) was 3670 ± 1260 nM, the Ki [5, 31] was 3670 ± 1260 nM and the Ki [5, 32] was 3670 ± 1260 nM.

COC(=O)CC1CCN(CCc2c[nH]c3c(OC)cccc23)CC1 [Compound 3-42] was tested, and the Ki [1, 10] was > 10000 nM, the Ki [1, 11] was > 10000 nM and the Ki [4, 15] was > 10000 nM. For the same compound, the Ki [4, 16] was > 10000 nM, the Ki [2, 20] was 830 ± 268 nM and the Ki [3, 24] was 1300 ± 129 nM. The Ki [3, 25] was 1300 ± 129 nM, the Ki [5, 29] was > 10000 nM and the Ki [5, 30] was > 10000 nM.

C#CCCN1CCC(O)(c2ccccc2OC)CC1 [SG-01-003, 1-(but-3-ynyl)-4-(2-methoxyphenyl)piperidin-4-ol] was tested, and the Ki [1, 6] was > 10000 nM, the “selectivity between MOR and α 2A” value ([1]; binding screen of intermediates) was “not selective towards both receptors” and the Ki [2, 7] was > 10000 nM. It also gave a Ki [3, 8] of 5750 ± 1170 nM.

COC(=O)C=C1CCN2CCC(O)(c3ccccc3OC)CC2C1 (stereo not drawn) [SG-01-005, Methyl 2-(8-hydroxy-8-(2-methoxyphenyl)dihydro-1H-quinolizin-2(6H,7H,8H,9H, 9aH)-ylidene)acetate] was tested, and the Ki [1, 6] was > 10000 nM, the Ki [2, 7] was 129 ± 37.9 nM and the Ki [3, 8] was 264 ± 16 nM.
